Results on 15 compounds are retold here after PubChem BioAssay (NCI).

Molecules are shown by their SMILES.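 Test compounds were applied to cells in 96-well plates for 48 hours at 5 doses. GI50 = concentration required for 50% inhibition of growth. At the TGI there is no net growth.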

Some test systems named below: SNB-78 CNS; XF 498 CNS; DLD-1 colon; LXFL 529 NSCLC; DMS 273 small cell lung; DMS 114 small cell lung; RXF-631 renal; HOP-18 NSCLC; MDA-N; P388/ADR leukemia; SN12K1 renal; P388 leukemia.
Holding throughout (assay): NCI tumour cell line growth inhibition, 48 h

With `CC(C)=O.O=C([O-])C(F)(F)F.O=C([O-])C(F)(F)F.O=C([O-])C(F)(F)F.O=C([O-])C(F)(F)F.[Rh+2].[Rh+2]`, the GI50 with SNB-78 CNS is 49.4 µM; in the test on XF 498 CNS, 58 µM; in the test on DLD-1 colon, above 100 µM; with LXFL 529 NSCLC, 31 µM; in the test on DMS 273 small cell lung it was 94.1 µM; in the test with DMS 114 small cell lung, 26.8 µM. For the same compound, the TGI in the test on SNB-78 CNS was above 100 µM; in the test with XF 498 CNS it was above 100 µM; in the test with DLD-1 colon it was above 100 µM; in the test with LXFL 529 NSCLC, above 100 µM; in the test on DMS 273 small cell lung, above 100 µM; with DMS 114 small cell lung, 90.3 µM.

For `S=c1nc(C(c2ccccc2)c2ccccc2)[nH][nH]1`, the TGI in the test on XF 498 CNS, in the test on RXF-631 renal, with DLD-1 colon, in the test on DMS 273 small cell lung and with DMS 114 small cell lung was above 100 µM in each case.

Take `O=c1/c(=C/c2c(O)ccc3ccccc23)sc2nc3ccccc3n12`: the TGI in the test on SNB-78 CNS, in the test on XF 498 CNS, in the test with RXF-631 renal, in the test on DLD-1 colon, in the test on LXFL 529 NSCLC and in the test with HOP-18 NSCLC was above 100 µM in each case. Moreover, the TGI in the test on DMS 273 small cell lung and in the test with DMS 114 small cell lung was above 100 µM each time.

Turning to `O=C1C=CC(=O)C2C1Cc1ccccc1C2c1ccccc1` (configuration not stated), the TGI is above 100 µM in the test on DLD-1 colon; 31.1 µM with LXFL 529 NSCLC; above 100 µM with HOP-18 NSCLC; above 100 µM in the test on DMS 273 small cell lung; 42.3 µM in the test with DMS 114 small cell lung.

As to `COC1=CC(=O)C(Br)=CC1=O`, the TGI in the test with XF 498 CNS is 31.5 µM; with RXF-631 renal, 99.2 µM; with DLD-1 colon, above 100 µM; in the test with LXFL 529 NSCLC, 31.2 µM; in the test on DMS 114 small cell lung, 35.5 µM.

In the test on MDA-N, `Nc1ncn(C2OC(COP(=O)(O)O)C(O)C2O)c(=O)n1` (configuration not stated) showed a TGI above 100 µM.

`Cn1cnc([N+](=O)[O-])c1Sc1nnnn1C`: the TGI with SNB-78 CNS is 30.2 µM; in the test on XF 498 CNS it was 30 µM; in the test on DLD-1 colon, 29.5 µM; in the test with LXFL 529 NSCLC it was 24.4 µM; in the test on HOP-18 NSCLC it was 21.5 µM; in the test with DMS 273 small cell lung, 36.1 µM. In the test on DMS 114 small cell lung, the TGI was determined as 32.2 µM.

For `O=c1nc(NC(c2ccccc2)(c2ccccc2)c2ccccc2)ccn1CCCl`, the TGI in the test with SNB-78 CNS is 86.7 µM; in the test with XF 498 CNS, 27.1 µM; in the test with RXF-631 renal, 97.4 µM; with DLD-1 colon, above 100 µM; in the test on LXFL 529 NSCLC it was 26.4 µM; in the test on HOP-18 NSCLC it was 72.1 µM. This compound showed a TGI in the test with DMS 114 small cell lung of 37.9 µM.

In the case of `C#CCN(N=O)C(=O)NCCCCC(NC(=O)OCc1ccccc1)C(=O)OCc1ccccc1` (configuration not stated), the TGI in the test on SNB-78 CNS was above 100 µM; in the test with XF 498 CNS, 74.1 µM; in the test with DLD-1 colon, 85.2 µM; with LXFL 529 NSCLC, 41.4 µM; in the test with HOP-18 NSCLC it was above 100 µM; in the test on DMS 273 small cell lung, above 100 µM.

As for `CC(CN1CC(=O)NC(=O)C1)N1CC(=O)NC(=O)C1` (configuration not stated), the TGI in the test with SNB-78 CNS was above 750 µM; in the test on XF 498 CNS it was above 690 µM; in the test on P388/ADR leukemia it was above 750 µM; with DLD-1 colon, above 750 µM; with SN12K1 renal, above 750 µM; in the test on P388 leukemia it was above 750 µM. The TGI in the test on HOP-18 NSCLC was above 511 µM; in the test on DMS 273 small cell lung, above 750 µM; in the test with MDA-N it was above 750 µM; in the test with DMS 114 small cell lung, 409 µM. Moreover, the GI50 in the test with SN12K1 renal is 67.1 µM.

For the compound `O=S(=O)(c1ccccc1)c1nccs1`, the TGI in the test on SNB-78 CNS, in the test with XF 498 CNS, with DLD-1 colon, in the test with LXFL 529 NSCLC, in the test with HOP-18 NSCLC and in the test on DMS 273 small cell lung was above 100 µM throughout. This compound also registered a TGI in the test on DMS 114 small cell lung above 100 µM.

`O=C1OC(c2ccccc2)(c2ccccc2)c2ccc3ccc(F)cc3c21`: the TGI with XF 498 CNS, with RXF-631 renal, with DLD-1 colon, in the test with LXFL 529 NSCLC, in the test with DMS 273 small cell lung and in the test with DMS 114 small cell lung was above 100 µM throughout.

For the compound `Cc1ccc(NC(=O)C(=O)C(C(=O)c2ccc3ccccc3c2)C2OC(=O)c3ccccc32)c(C)c1` (configuration not stated), the TGI with SNB-78 CNS came to 72.6 µM; in the test with XF 498 CNS, 10.7 µM; with RXF-631 renal it was 20.6 µM; in the test on DLD-1 colon, 26.5 µM; in the test with LXFL 529 NSCLC, 20.4 µM; in the test with HOP-18 NSCLC, 29.5 µM. Further, the TGI in the test on DMS 114 small cell lung was 31.7 µM.

As to `CCO/C(CCn1[nH]c(=O)c(Cl)c(Cl)c1=O)=N\NC(=O)C(=O)NN`, the TGI in the test on XF 498 CNS, in the test with RXF-631 renal, in the test with DLD-1 colon, in the test on LXFL 529 NSCLC, in the test on HOP-18 NSCLC and in the test with DMS 273 small cell lung was above 100 µM throughout. The compound further had a TGI in the test on DMS 114 small cell lung above 100 µM.

Take `Cc1cc2c(cc1C)[n+](=O)c(C(=O)/C=C/c1ccc3c(c1)OCO3)c(C)n2[O-]`: the TGI is above 100 µM with SNB-78 CNS; 54.9 µM in the test on XF 498 CNS; above 91.3 µM in the test with RXF-631 renal; above 100 µM in the test on DLD-1 colon; above 100 µM in the test on HOP-18 NSCLC; above 100 µM in the test on DMS 273 small cell lung. The results for the TGI in the test on MDA-N and in the test with DMS 114 small cell lung were above 100 µM and above 84.5 µM, respectively.
